Assay results as given in US8841456B2, “1,5-naphthyridine derivative or salt thereof” (FUJIFILM Corporation, priority 2011, dated 2014).
Where two headings read alike, the source gives them in different places.

Experiments:
[1] = biological target: T1, glutathione S-transferase (GST)-fusion human ERK2 protein (Homo sapiens, UniProt P28482); test: ERK2 enzyme assay (LabChip mobility shift); format: biochemical; details: 2 nM ERK2, 4.25 μM FL-Peptide 8, 43 μM ATP
T1 construct: purchased Carna Biosciences, Inc; host or cells: E. coli expression system
Outline: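 GST-tagged human ERK2 from E. coli, at 2 nM, was preincubated 15 min at room temperature with compound in Hepes pH 7.5 with MgCl2, DTT and Brij35. The reaction ran 120 min at 25 °C with 4.25 μM FL-Peptide 8 and 43 μM ATP (final). Phosphopeptide fraction was measured by mobility-shift separation to give IC50.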

human PI3Kα protein = biological target: T2, human PI3Kα protein (Homo sapiens, UniProt P42336); test: PI3Kα enzyme assay (ADP-Glo kinase assay); format: biochemical; details: 3 nM PI3Kα, 50 μM PIP2, 100 μM ATP
T2 construct: purchased Carna Biosciences, Inc; host or cells: Baculovirus expression system
Outline: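 Baculovirus-expressed biotinylated human PI3Kα (3 nM) preincubated 15 min with compound in Tris pH 7.5, MgCl2, BSA, then reacted 60 min at 25 °C with 50 μM PIP2 and 100 μM ATP. ADP quantified by ADP-Glo luminescence; IC50 calculated.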

[2] = IC50 class, read-out: ERK2 Inhibitory Activity
[3] = IC50 class, read-out: PI3Kα Inhibitory Activity

T2 sequence (P42336 whole entry): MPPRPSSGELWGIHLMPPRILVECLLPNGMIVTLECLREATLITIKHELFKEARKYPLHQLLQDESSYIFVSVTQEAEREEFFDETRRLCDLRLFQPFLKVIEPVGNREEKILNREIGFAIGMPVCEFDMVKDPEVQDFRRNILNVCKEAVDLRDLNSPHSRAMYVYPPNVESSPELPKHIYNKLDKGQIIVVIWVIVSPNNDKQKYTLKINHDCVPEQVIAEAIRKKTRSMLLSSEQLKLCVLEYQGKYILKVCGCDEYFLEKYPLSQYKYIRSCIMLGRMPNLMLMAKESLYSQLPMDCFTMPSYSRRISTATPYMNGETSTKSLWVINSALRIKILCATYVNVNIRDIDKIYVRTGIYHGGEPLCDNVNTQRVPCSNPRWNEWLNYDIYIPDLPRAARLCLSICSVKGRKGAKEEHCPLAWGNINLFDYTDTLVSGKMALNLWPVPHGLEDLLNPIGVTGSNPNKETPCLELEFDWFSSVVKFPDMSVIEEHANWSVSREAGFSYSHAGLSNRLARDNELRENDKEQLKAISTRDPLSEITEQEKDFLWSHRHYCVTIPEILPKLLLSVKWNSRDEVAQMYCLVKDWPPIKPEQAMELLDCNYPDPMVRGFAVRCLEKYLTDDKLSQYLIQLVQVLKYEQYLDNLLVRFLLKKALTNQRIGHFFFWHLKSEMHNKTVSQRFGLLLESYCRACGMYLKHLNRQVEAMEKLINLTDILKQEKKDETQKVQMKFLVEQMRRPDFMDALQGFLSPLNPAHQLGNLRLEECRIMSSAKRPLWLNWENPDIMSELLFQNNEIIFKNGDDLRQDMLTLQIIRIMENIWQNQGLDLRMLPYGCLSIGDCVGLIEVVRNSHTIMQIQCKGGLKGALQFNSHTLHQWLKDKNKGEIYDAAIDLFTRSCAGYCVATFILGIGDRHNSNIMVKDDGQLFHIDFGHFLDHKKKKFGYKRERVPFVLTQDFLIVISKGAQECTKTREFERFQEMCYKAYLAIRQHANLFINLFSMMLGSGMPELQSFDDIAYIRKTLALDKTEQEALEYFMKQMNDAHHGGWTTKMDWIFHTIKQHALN
T2 sequence (P27986 whole entry partner): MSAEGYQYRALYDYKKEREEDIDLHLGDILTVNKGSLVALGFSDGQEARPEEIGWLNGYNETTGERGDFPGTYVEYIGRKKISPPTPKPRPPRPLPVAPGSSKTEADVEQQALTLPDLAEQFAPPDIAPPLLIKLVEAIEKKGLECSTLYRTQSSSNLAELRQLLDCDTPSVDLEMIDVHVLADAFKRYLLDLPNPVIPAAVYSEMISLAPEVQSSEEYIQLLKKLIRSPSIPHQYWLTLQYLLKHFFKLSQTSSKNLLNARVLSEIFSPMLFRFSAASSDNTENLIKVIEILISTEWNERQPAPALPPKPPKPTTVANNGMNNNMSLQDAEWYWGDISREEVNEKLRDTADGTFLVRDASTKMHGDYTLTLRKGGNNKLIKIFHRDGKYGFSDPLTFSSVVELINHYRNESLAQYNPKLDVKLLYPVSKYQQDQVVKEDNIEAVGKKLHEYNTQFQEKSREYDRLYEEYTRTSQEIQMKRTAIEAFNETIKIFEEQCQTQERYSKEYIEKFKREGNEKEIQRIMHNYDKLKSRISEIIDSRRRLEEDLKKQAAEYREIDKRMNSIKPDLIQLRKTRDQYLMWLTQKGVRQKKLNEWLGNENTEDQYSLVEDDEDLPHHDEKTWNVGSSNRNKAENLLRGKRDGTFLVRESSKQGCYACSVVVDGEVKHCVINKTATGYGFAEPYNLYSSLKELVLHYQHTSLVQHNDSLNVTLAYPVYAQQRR
T1 sequence (P28482 whole entry, the tested form may be a part): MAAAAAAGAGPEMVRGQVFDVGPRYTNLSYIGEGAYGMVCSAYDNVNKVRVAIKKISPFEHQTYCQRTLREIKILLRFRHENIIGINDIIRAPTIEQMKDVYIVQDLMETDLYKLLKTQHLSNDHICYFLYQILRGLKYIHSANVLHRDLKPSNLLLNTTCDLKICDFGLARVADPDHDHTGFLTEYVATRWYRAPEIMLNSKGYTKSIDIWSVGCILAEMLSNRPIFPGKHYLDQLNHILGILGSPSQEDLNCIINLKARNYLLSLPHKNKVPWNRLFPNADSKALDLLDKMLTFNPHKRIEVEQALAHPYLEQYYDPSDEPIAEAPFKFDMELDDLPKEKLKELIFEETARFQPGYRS

Compound	IC50 [1, 2]	IC50 (human PI3Kα protein; [3])	IC50 ([1]; read-out: ERK2, IC50)	IC50 (human PI3Kα protein; read-out: PI3Kα, IC50)
O=C(NCCCCc1ccccc1F)Nc1ccc2ncc(-c3cnn(CCCN4CCOCC4)c3)cc2n1 [Compound 0183]	< 100 nM	< 100 nM	–	–
O=C(Nc1ccc2ncc(N3CC(OCCN4CCOCC4)C3)cc2n1)NC1CCCC1 [Compound 0241]	100 to 1000 nM	< 100 nM	–	–
COCCN(CCOC)CCn1cc(-c2cnc3ccc(NC(=O)NC4CCCC4)nc3c2)cn1 [Compound 0048]	< 100 nM	< 100 nM	–	–
CC(=O)OCCCCn1cc(-c2cnc3ccc(NC(=O)NC4CCCC4)nc3c2)cn1 [Compound 0249]	< 100 nM	< 100 nM	–	–
O=C(NCC1CCC(F)(F)CC1)Nc1ccc2ncc(-c3cn[nH]c3)cc2n1 [Compound 0113]	< 100 nM	100 to 1000 nM	–	–
CC(C)(C)NC(=O)Nc1ccc2ncc(-c3cnn(CCCN4CCNCC4)c3)cc2n1 [Compound 0164]	< 100 nM	< 100 nM	–	–
O=C(Nc1ccc2ncc(-c3cnn(CC4CNC4)c3)cc2n1)NC1CCCC1 [Compound 0146]	< 100 nM	< 100 nM	–	–
O=C(Nc1ccc2ncc(C3=CCOCC3)cc2n1)NC1CCCC1 [Compound 0205]	< 100 nM	< 100 nM	–	–
S=C(Nc1ccc2ncc(-c3cnn(CCN4CCNCC4)c3)cc2n1)NC1CCCC1 [Compound 0222]	< 100 nM	< 100 nM	–	–
COCC1(NC(=O)Nc2ccc3ncc(-c4cn[nH]c4)cc3n2)CCC1 [Compound 0196]	100 to 1000 nM	100 to 1000 nM	–	–
COc1cc(-c2cnc3ccc(NC(=O)NC4CCCC4)nc3c2)ccc1O [Compound 0001]	< 100 nM	< 100 nM	–	–
CN(CCNC(=O)Nc1ccc2ncc(-c3cn[nH]c3)cc2n1)Cc1ccccc1 [Compound 0108]	< 100 nM	100 to 1000 nM	–	–
CN1CC(Cn2cc(-c3cnc4ccc(NC(=O)NC5CCCC5)nc4c3)cn2)C1 [Compound 0147]	< 100 nM	< 100 nM	–	–
O=C(Nc1ccc2ncc(N3CCNCC3)cc2n1)NC1CCCC1 [Compound 0013]	100 to 1000 nM	100 to 1000 nM	–	–
O=C(NCCOCc1ccccc1)Nc1ccc2ncc(-c3cn[nH]c3)cc2n1 [Compound 0107]	< 100 nM	100 to 1000 nM	–	–
O=C(NCCCN1CCOCC1)Nc1ccc2ncc(-c3cn[nH]c3)cc2n1 [Compound 0201]	100 to 1000 nM	1000 to 10000 nM	–	–
C=CCNC(=O)Nc1ccc2ncc(-c3cn[nH]c3)cc2n1 [Compound 0056]	< 100 nM	100 to 1000 nM	–	–
CN(C)CCn1cc(-c2cnc3ccc(NC(=O)NC4CCCC4)nc3c2)cn1 [Compound 0018]	100 to 1000 nM	< 100 nM	–	–
O=C(Nc1ccc2ncc(N3CC(OCCCN4CCOCC4)C3)cc2n1)NC1CCCC1 [Compound 0240]	100 to 1000 nM	< 100 nM	–	–
O=C(Nc1ccc2ncc(-c3cnn(C4CCNCC4)c3)cc2n1)NC1CCCC1 [Compound 0214]	100 to 1000 nM	< 100 nM	–	–
COc1ccc(Nc2cnc3ccc(NC(=O)NC4CCCC4)nc3c2)cc1OC [Compound 0030]	> 10000 nM	< 100 nM	–	–
O=C(Nc1ccc2ncc(Nc3cn[nH]c3)cc2n1)NC1CCCC1 [Compound 0125]	100 to 1000 nM	< 100 nM	324 nM	< 3 nM
CC(CCc1ccccc1)NC(=O)Nc1ccc2ncc(-c3cnn(CCCN4CCOCC4)c3)cc2n1 (stereo not drawn) [Compound 0179]	< 100 nM	< 100 nM	–	–
O=C(Nc1ccc2ncc(-c3cn[nH]c3)cc2n1)N[C@H]1CCc2ccccc21 [Compound 0077]	< 100 nM	100 to 1000 nM	–	–
O=C(Nc1ccc2ncc(-c3cnn(CCN4CCCCC4)c3)cc2n1)NC1CCCC1 [Compound 0036]	< 100 nM	< 100 nM	–	–
O=C(NCC1C[C@@H]2CC[C@H]1C2)Nc1ccc2ncc(-c3cn[nH]c3)cc2n1 (stereo partly drawn) [Compound 0110]	< 100 nM	< 100 nM	–	–
COc1c(-c2cnn(C)c2)cnc2ccc(NC(=O)NC3CCCC3)nc12 [Compound 0235]	< 100 nM	< 100 nM	–	–

Compound	IC50 [1, 2]	IC50 (human PI3Kα protein; [3])	IC50 ([1]; read-out: ERK2, IC50)	IC50 (human PI3Kα protein; read-out: PI3Kα, IC50)
CC(C)CC(C)NC(=O)Nc1ccc2ncc(-c3cn[nH]c3)cc2n1 (stereo not drawn) [Compound 0087]	< 100 nM	< 100 nM	–	–
CC(C)(C)OC(=O)N1CC[C@@H](NC(=O)Nc2ccc3ncc(-c4cn[nH]c4)cc3n2)C1 [Compound 0070]	< 100 nM	100 to 1000 nM	–	–
CC1(NC(=O)Nc2ccc3ncc(N4CCOCC4)cc3n2)CCCC1 [Compound 0253]	< 100 nM	< 100 nM	–	–
O=C(Nc1ccc2ncc(-c3ccoc3)cc2n1)NC1CCCC1 [Compound 0119]	< 100 nM	100 to 1000 nM	–	–
O=C(Nc1ccc2ncc(-c3ccc(O)cc3)cc2n1)NC1CCCC1 [Compound 0034]	< 100 nM	< 100 nM	–	–
CN(C)CCn1cc(-c2cnc3ccc(NC(=S)N[C@@H]4C[C@H]5CC[C@@H]4C5)nc3c2)cn1 [Compound 0213]	< 100 nM	100 to 1000 nM	–	–
CCN(CC)CCNC(=O)Nc1ccc2ncc(-c3cn[nH]c3)cc2n1 [Compound 0109]	1000 to 10000 nM	> 10000 nM	–	–
CC(C)N1CCC(n2cc(-c3cnc4ccc(NC(=O)NC5CCCC5)nc4c3)cn2)CC1 [Compound 0231]	100 to 1000 nM	< 100 nM	–	–
CO[C@H]1CCC[C@@H]1NC(=O)Nc1ccc2ncc(-c3cn[nH]c3)cc2n1 [Compound 0194]	< 100 nM	100 to 1000 nM	–	–
Cn1cc(-c2cnc3ccc(NC(=S)NC(=O)c4ccccc4)nc3c2)cn1 [Compound 0251]	100 to 1000 nM	100 to 1000 nM	–	–
O=C(NCCCc1ccccc1)Nc1ccc2ncc(-c3cn[nH]c3)cc2n1 [Compound 0095]	< 100 nM	100 to 1000 nM	–	–
CCCC(C)(C)NC(=O)Nc1ccc2ncc(-c3cn[nH]c3)cc2n1 [Compound 0184]	< 100 nM	< 100 nM	–	–
CCOC(=O)c1nn(C)cc1-c1cnc2ccc(NC(=O)NC3CCCC3)nc2c1 [Compound 0215]	100 to 1000 nM	< 100 nM	–	–
CS(=O)(=O)C1CCN(CCn2cc(-c3cnc4ccc(NC(=O)NC5CCCC5)nc4c3)cn2)CC1 [Compound 0218]	< 100 nM	< 100 nM	–	–
COc1cc(-c2cnc3ccc(NC(=O)NC4CCCC4)nc3c2)cnc1O [Compound 0015]	< 100 nM	< 100 nM	–	–
O=C(Nc1ccc2ncc(N3CCOCC3)cc2n1)NC1CCCC1 [Compound 0008]	< 100 nM	< 100 nM	–	–
CC(C)(C)NC(=O)Nc1ccc2ncc(-c3cnn(CCCN4CCOCC4)c3)cc2n1 [Compound 0185]	100 to 1000 nM	1000 to 10000 nM	–	–
O=C(Nc1ccc2ncc(-c3c[nH]nc3CO)cc2n1)NC1CCCC1 [Compound 0219]	< 100 nM	< 100 nM	–	–
Cc1nc2ccc(NC(=O)NC3CCCC3)nc2cc1-c1cnn(C)c1 [Compound 0236]	> 10000 nM	100 to 1000 nM	–	–
O=C(Nc1ccc2ncc(-c3cnn(CCN4CCOCC4)c3)cc2n1)NC1C[C@H]2CC[C@@H]1C2 (stereo partly drawn) [Compound 0114]	< 100 nM	< 100 nM	–	–
C[C@@H](CN(C)C)Cn1cc(-c2cnc3ccc(NC(=O)NC4CCCC4)nc3c2)cn1 [Compound 0245]	100 to 1000 nM	< 100 nM	–	–
COCCN(C)CCn1cc(-c2cnc3ccc(NC(=O)NC4CCCC4)nc3c2)cn1 [Compound 0037]	< 100 nM	< 100 nM	–	–
O=C(Nc1ccc2ncc(-c3cnn(C4CNC4)c3)cc2n1)NC1CCCC1 [Compound 0143]	100 to 1000 nM	< 100 nM	–	–
CC(C)(C)OC(=O)N1CCN(c2cnc3ccc(NC(=O)NC4CCCC4)nc3c2)CC1 [Compound 0012]	1000 to 10000 nM	100 to 1000 nM	–	–
O=C(NCCCCc1ccccc1Cl)Nc1ccc2ncc(-c3cn[nH]c3)cc2n1 [Compound 0165]	< 100 nM	100 to 1000 nM	–	–
O=C(NCC1CCCC1)Nc1ccc2ncc(-c3cn[nH]c3)cc2n1 [Compound 0081]	< 100 nM	< 100 nM	–	–
